Columns and labels:
[1] = test system: rhythmic bladder contractions induced by substance P; experiment: Inhibitory effect on the rhythmic bladder contractions induced by substance P in anesthetized rats; assay type: in vivo, rat; settings: 0.25 mg/kg, intravenous administration; urethane-anesthetized female Sprague-Dawley rats; observed for 35 minutes
[2] = test system: isolated rabbit urinary bladder; experiment: Relaxation effect on potassium-induced contraction of isolated rabbit urinary bladder; assay type: cell-based; settings: Oryctolagus cuniculus; strips pre-contracted with high-K+ (30 mM) Krebs solution; relaxation as percentage of maximum relaxation by 10^-4 M papaverine; read-out: IC50 value (50% relaxation concentration)
Protocol: [Relaxation Effect on Potassium-Induced Contraction of Isolated Rabbit Urinary Bladder]
Urinary bladder was isolated from Male NZW rabbits (body weight: 2.0-3.5 kg) and immersed in ice-cold Krebs-bicarbonate solution (in mM: 118 NaCl, 4.7 KCl, 2.55 CaCl2, 1.18 MgSO4, 1.18 KH2PO4, 24.88 NaHCO3 and 11.1 glucose). The urinary bladder was cut into longitudinal strips (5 mm length, 3-4 mm width) after mucosal layer was removed.
Preparations were mounted in organ baths containing 10 ml of Krebs solution maintained at 37° C. and gassed with 95% O2/5% CO2. Accordingly, preparations were stretched with an initial tension of 2.0±1.0 g, and changes in isometric tension were measured by force-displacement transducer. The preparations were pre-contracted by changing organ-bath solution into high-K^+ (30 mM) Krebs solution (in mM: 118 NaCl, […], 2.55 CaCl2, 1.18 MgSO4, 1.18 KH2PO4, 24.88 NaHCO3 and 11.1 glucose).
After stable tension was obtained, compounds were added into organ baths cumulatively (10^−8 M-10^−4 M). The effects of compounds were expressed as a percentage of the maximum relaxation produced by 10^−4 M papaverine as 100%. 50% relaxation concentration (IC50) was calculated and IC50 value range (μM) of compounds of the present invention was shown in the following Table 1 with a rank of A, B or C.
These ranges are as mentioned below.

Q: Which results are given for Cc1ccccc1-c1ncc(Cl)cc1-c1ccc(C(N)=O)cc1 [Example 43]?
A: 100% inhibition time: Time (min) during which the frequency of the rhythmic contraction had been completely inhibited [1]: >35 min; IC50 [2]: 500 to 1000 nM

Q: For Cc1ccc(-c2ncc(Cl)cc2-c2ccc(C(N)=O)cc2)cn1 [Example 1], which “100% inhibition time: Time (min) during which the frequency of the rhythmic contraction had been completely inhibited” value [1] is on record?
A: 20.5 min

Q: What about the IC50 [2] of the same compound?
A: 500 to 1000 nM
